Laboratory results: ChEMBL document CHEMBL1777779, “Discovery of novel quaternary ammonium derivatives of (3R)-quinuclidinyl carbamates as potent and long acting muscarinic antagonists” (Bioorg Med Chem Lett, 2011)

Columns and labels:
[1] = target: Muscarinic acetylcholine receptor M3 (Homo sapiens, UniProt P20309); experiment: Displacement of [3H]NMS from human muscarinic M3 receptor expressed in CHO-K1 cells after 1 hr by scintillation counting; assay type: cell-based
[2] = target: Muscarinic acetylcholine receptors; M2 & M3 (Homo sapiens) (UniProt P20309+P08172); experiment: Selectivity ratio of IC50 for human muscarinic M2 receptor to IC50 for human muscarinic M3 receptor
Chain of Muscarinic acetylcholine receptors; M2 & M3 (Homo sapiens) (P20309 whole entry, looked up, one chain of several): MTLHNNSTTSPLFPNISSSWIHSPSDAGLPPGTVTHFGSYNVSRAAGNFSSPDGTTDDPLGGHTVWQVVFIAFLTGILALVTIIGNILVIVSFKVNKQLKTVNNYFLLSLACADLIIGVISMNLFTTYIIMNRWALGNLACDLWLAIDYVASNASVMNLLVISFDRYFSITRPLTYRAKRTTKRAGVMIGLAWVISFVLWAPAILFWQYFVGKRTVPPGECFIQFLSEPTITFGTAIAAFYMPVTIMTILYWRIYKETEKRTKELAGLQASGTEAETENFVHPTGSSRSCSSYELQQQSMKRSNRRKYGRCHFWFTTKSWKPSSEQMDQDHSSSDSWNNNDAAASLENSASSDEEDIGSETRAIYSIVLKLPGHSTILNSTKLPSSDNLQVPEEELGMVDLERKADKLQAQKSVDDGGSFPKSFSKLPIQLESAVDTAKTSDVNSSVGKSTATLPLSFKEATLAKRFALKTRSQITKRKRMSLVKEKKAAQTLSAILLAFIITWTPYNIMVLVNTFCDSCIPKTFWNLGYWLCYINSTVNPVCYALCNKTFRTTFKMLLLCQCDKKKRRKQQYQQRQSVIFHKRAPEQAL

[3] = target: Muscarinic acetylcholine receptor M1 and M3 (Homo sapiens) (UniProt P20309+P11229); experiment: Selectivity ratio of IC50 for human muscarinic M1 receptor to IC50 for human muscarinic M3 receptor
Chain of Muscarinic acetylcholine receptor M1 and M3 (Homo sapiens) (P20309 whole entry, looked up, one chain of several): as above

[4] = target: T1, Muscarinic acetylcholine receptor M2 (Homo sapiens, UniProt P08172); experiment: Displacement of [3H]NMS from human muscarinic M2 receptor expressed in CHO-K1 cells after 1 hr by scintillation counting; assay type: cell-based
T1 sequence (P08172 whole entry): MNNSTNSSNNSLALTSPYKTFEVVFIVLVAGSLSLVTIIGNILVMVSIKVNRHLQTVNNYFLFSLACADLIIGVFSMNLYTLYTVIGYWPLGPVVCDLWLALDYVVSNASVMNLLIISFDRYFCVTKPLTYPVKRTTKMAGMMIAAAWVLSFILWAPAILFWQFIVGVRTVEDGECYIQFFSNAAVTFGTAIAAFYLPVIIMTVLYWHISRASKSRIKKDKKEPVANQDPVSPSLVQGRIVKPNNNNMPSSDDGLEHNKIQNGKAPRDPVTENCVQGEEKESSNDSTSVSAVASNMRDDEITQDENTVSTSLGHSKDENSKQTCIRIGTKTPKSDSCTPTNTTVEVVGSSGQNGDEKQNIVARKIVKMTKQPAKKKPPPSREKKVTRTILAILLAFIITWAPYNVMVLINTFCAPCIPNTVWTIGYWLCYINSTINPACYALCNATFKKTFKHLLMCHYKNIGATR

[5] = target: T2, Muscarinic acetylcholine receptor M1 (Homo sapiens, UniProt P11229); experiment: Displacement of [3H]NMS from human muscarinic M1 receptor expressed in CHO-K1 cells after 1 hr by scintillation counting; assay type: cell-based
T2 sequence (P11229 whole entry): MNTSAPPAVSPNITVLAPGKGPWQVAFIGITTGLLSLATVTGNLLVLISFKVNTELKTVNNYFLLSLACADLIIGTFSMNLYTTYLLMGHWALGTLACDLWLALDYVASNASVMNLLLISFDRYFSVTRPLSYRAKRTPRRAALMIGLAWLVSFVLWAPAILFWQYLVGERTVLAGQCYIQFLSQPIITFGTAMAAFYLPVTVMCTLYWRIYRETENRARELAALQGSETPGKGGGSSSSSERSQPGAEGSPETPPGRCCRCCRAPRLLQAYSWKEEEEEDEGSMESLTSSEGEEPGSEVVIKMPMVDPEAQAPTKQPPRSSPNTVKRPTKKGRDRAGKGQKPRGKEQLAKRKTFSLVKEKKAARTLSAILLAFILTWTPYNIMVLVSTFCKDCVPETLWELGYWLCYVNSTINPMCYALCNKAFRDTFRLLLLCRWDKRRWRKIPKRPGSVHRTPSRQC

Cavia porcellus [6] = experiment: Inhibition of acetylcholine-induced bronchospasm in anesthetized Dunkin-Hartley guinea pig assessed as time required to recover 50% of maximum inhibitory effect at 1 mg/ml administered via nebulizer; assay type: functional
Cavia porcellus [7] = experiment: Inhibition of acetylcholine-induced bronchospasm in anesthetized Dunkin-Hartley guinea pig assessed as time required to recover 50% of maximum inhibitory effect at 3 mg/ml administered via nebulizer; assay type: functional

Chain of Muscarinic acetylcholine receptor M3 (P20309 whole entry): as the sequence (P20309 whole entry, looked up, one chain of several) above

| SMILES | IC50 [1] | Ratio IC50 [2] | Ratio IC50 [3] | IC50 [4] | IC50 [5] | Time (Cavia porcellus [6]) | Time (Cavia porcellus [7]) |
| --- | --- | --- | --- | --- | --- | --- | --- |
| CCCCN(Cc1cccs1)C(=O)O[C@H]1CN2CCC1CC2 | 17.7 nM | 4.3 | 0.04 | 76.2 nM | 0.8 nM |  |  |
| Cc1cccc(N(Cc2cc(F)c(F)cc2F)C(=O)O[C@H]2C[N+]3(CCOc4ccccc4)CCC2CC3)c1.[Br-] | 1.2 nM | 23.3 | 2 | 28 nM | 2.4 nM | <6 h |  |
| CCCCN(C(=O)O[C@H]1C[N+]2(CCOc3ccccc3)CCC1CC2)c1ccccc1.[Br-] | 0.8 nM | 11.1 | 1.7 | 8.9 nM | 1.4 nM | >6 h |  |
| Cc1cccc(N(Cc2cc(F)c(F)cc2F)C(=O)O[C@H]2C[N+]3(CCCc4ccccc4)CCC2CC3)c1.[Br-] | 0.9 nM | 33.1 | 3.3 | 29.8 nM | 3 nM | <6 h |  |
| O=C(Nc1ccccc1-c1ccccc1)OC12CCN(CC1)CC2 | 6 nM | 2.4 | 0.5 | 14.5 nM | 3 nM |  |  |
| O=C(O[C@H]1C[N+]2(CCCc3cccs3)CCC1CC2)N(Cc1ccsc1)c1ccccc1.[Br-] | 0.6 nM | 14 | 3.3 | 8.4 nM | 2 nM | >6 h |  |
| Cc1cccc(N(Cc2cc(F)c(F)cc2F)C(=O)O[C@H]2CN3CCC2CC3)c1 | 1.4 nM | 32.7 | 0.7 | 45.8 nM | 1 nM |  |  |
| O=C(O[C@H]1CN2CCC1CC2)N(CCc1ccccc1)c1ccccc1 | 3.6 nM | 11.7 | 0.3 | 42.1 nM | 1 nM |  |  |
| O=C(O[C@H]1CN2CCC1CC2)N1CCc2ccccc2[C@@H]1c1ccccc1 [SOLIFENACIN SUCCINATE] | 131 nM | 4.4 | 0.5 | 574 nM | 63.5 nM |  |  |
| O=C(O[C@H]1CN2CCC1CC2)N(Cc1ccccc1)Cc1cccs1 | 22.5 nM | 3.95 | 0.4 | 88.9 nM | 8.8 nM |  |  |
| O=C(O[C@H]1CN2CCC1CC2)N(Cc1ccsc1)c1ccccc1 | 1 nM | 4.7 | 0.4 | 4.7 nM | 0.4 nM | <4 h |  |
| O=C(O[C@H]1CN2CCC1CC2)N(Cc1cccs1)c1ccccc1 | 0.6 nM | 3 | 0.7 | 1.8 nM | 0.4 nM | <4 h |  |
| CCCCN(C(=O)O[C@H]1CN2CCC1CC2)c1ccccc1 | 4.3 nM | 5.3 | 0.2 | 22.9 nM | 1.1 nM | <1 h |  |
| O=C(O[C@H]1CN2CCC1CC2)N(Cc1cc(F)c(F)c(F)c1)c1cccc(F)c1 [TARAFENACIN] | 1.5 nM | 64.9 | 0.6 | 97.3 nM | 0.9 nM |  |  |
| Cc1ccc(N(Cc2ccccc2)C(=O)O[C@H]2CN3CCC2CC3)cc1 | 74.7 nM | 2.6 | 0.5 | 196 nM | 39.7 nM |  |  |
| O=C(O[C@H]1C[N+]2(CCOc3ccccc3)CCC1CC2)N(Cc1ccsc1)c1ccccc1.[Br-] | 0.2 nM | 8 | 2 | 1.6 nM | 0.4 nM | >6 h |  |
| CCCCN(C(=O)O[C@H]1C[N+]2(CCCc3cccs3)CCC1CC2)c1ccccc1.[Br-] | 0.6 nM | 18.2 | 3.3 | 10.9 nM | 2 nM | >6 h |  |
| O=C(O[C@H]1C[N+]2(CCCc3cccs3)CCC1CC2)N(Cc1ccccc1)c1ccccc1.[Br-] | 0.6 nM | 12.7 | 2.3 | 7.6 nM | 1.4 nM | >6 h |  |

| SMILES | IC50 [1] | Ratio IC50 [2] | Ratio IC50 [3] | IC50 [4] | IC50 [5] | Time (Cavia porcellus [6]) | Time (Cavia porcellus [7]) |
| --- | --- | --- | --- | --- | --- | --- | --- |
| O=C(O[C@H]1CN2CCC1CC2)N(Cc1cccc(F)c1)c1cccc(F)c1 | 2.4 nM | 11.2 | 0.6 | 26.8 nM | 1.5 nM |  |  |
| O=C(O[C@H]1C[N+]2(CCOc3ccccc3)CCC1CC2)N(Cc1ccccc1)c1ccccc1.[Br-] | 1 nM | 3.9 | 1.7 | 3.9 nM | 1.7 nM | >6 h |  |
| O=C(O[C@H]1C[N+]2(CCCc3ccccc3)CCC1CC2)N(Cc1ccccc1)c1ccccc1.[Br-] | 0.3 nM | 13.3 | 5 | 4 nM | 1.5 nM | >6 h |  |
| O=C(O[C@H]1C[N+]2(CCc3ccccc3)CCC1CC2)N(Cc1ccccc1)c1ccccc1.[Br-] | 17.7 nM | 2.9 | 0.85 | 50.9 nM | 15.1 nM | <2 h |  |
| O=C(O[C@H]1CN2CCC1CC2)N(c1ccccc1)c1ccccc1 | 797 nM | 3.5 | 0.4 | 2780 nM | 319 nM |  |  |
| O=C(O[C@H]1C[N+]2(CCOc3ccccc3)CCC1CC2)N(Cc1cc(F)c(F)c(F)c1)c1cccc(F)c1.[Br-] | 0.6 nM | 24 | 1.8 | 14.4 nM | 1.1 nM | >6 h |  |
| CC(C)N(C(=O)O[C@H]1CN2CCC1CC2)c1ccccc1 | 659 nM | 2.1 | 0.6 | 1360 nM | 428 nM |  |  |
| O=C(O[C@H]1CN2CCC1CC2)N(Cc1ccccc1)c1ccc(F)cc1 | 15 nM | 7.7 | 0.5 | 116 nM | 8.3 nM |  |  |
| O=C(O[C@H]1C[N+]2(CCOc3ccccc3)CCC1CC2)N(Cc1cccs1)c1ccccc1.[Br-] | 0.3 nM | 3.7 | 1.3 | 1.1 nM | 0.4 nM | >6 h |  |
| O=C(O[C@H]1CN2CCC1CC2)N(Cc1cccs1)Cc1cccs1 | 5.9 nM | 3.8 | 0.4 | 22.7 nM | 2.4 nM |  |  |
| CCCCCN(C(=O)O[C@H]1CN2CCC1CC2)c1ccccc1 | 1.7 nM | 8 | 0.5 | 13.6 nM | 0.8 nM |  |  |
| CCCN(C(=O)O[C@H]1CN2CCC1CC2)c1ccccc1 | 71.1 nM | 4.9 | 0.4 | 349 nM | 26.7 nM |  |  |
| O=C(O[C@H]1C[N+]2(CCCc3cccs3)CCC1CC2)N(Cc1cccs1)c1ccccc1.[Br-] | 0.5 nM | 6.4 | 3.2 | 3.2 nM | 1.6 nM | >6 h |  |
| CCCCN(C(=O)O[C@H]1C[N+]2(CCc3ccccc3)CCC1CC2)c1ccccc1 | 19 nM | 6.3 | 1.7 | 121 nM | 33.3 nM |  |  |
| CCCCN(C(=O)O[C@H]1C[N+]2(CCCc3ccccc3)CCC1CC2)c1ccccc1 | 0.8 nM | 22.1 | 3.1 | 17.7 nM | 2.5 nM |  |  |
| O=C(O[C@H]1CN2CCC1CC2)N(Cc1ccccc1)c1ccccc1 | 1.2 nM | 3.1 | 0.3 | 3.7 nM | 0.4 nM |  | 1.5 h |
| C[N+]12CCC(CC1)[C@@H](OC(=O)N(Cc1cccs1)c1ccccc1)C2 | 18.6 nM | 1.8 | 0.5 | 33.1 nM | 9.2 nM |  |  |
